Holding throughout (format): cell-based
Series [1] has as its system human keratinocytes. Nature of the series: cells. As to conditions: Keratinocyte, five days, choline-free medium, ±SD, * statistically significant, read-out: Protein. The method, then: (§1) Human keratinocytes, isolated from neonatal foreskin by trypsin treatment were grown in Dulbecco Modification Eagle (DME) Hams F12 (3:1) medium/5% fetal calf serum in the presence of mitomycin C treated 3T3 mouse fibroblasts for establishing dividing keratinocyte colonies. Cells were grown under the above condition until their second passage and kept frozen for future use. Frozen second passage keratinocytes were thawed and plated into the above medium and grown for five days. On day 5, when the cells were 70-80% confluent, they were trypsinized and plated in the serum-free medium for the various experiments.
(§2) 4. The medium was aspirated, and the wells washed with 1 ml phosphate-buffered saline. The DNA and proteins of the cells in the plate were then precipitated by adding 1 ml of ice-cold 10% trichloroacetic acid (TCA). The plates were left on ice for 30 minutes to complete the precipitation process. TCA was then aspirated and each well was then washed four times with 5% TCA. The plates were then dried on a filter pad and the cells in the wells were dissolved in 0.5 ml of 0.1N sodium hydroxide. The sodium hydroxide was then neutralized using 0.1N hydrochloric acid and the solution (1 ml total volume) was then transferred to a scintillation vial. 50 μl samples from each vial were used for protein assay using BCA protein assay reagent obtained from Pierce Chemical Company. 8 ml of a scintillation fluid (Ecolume) was added to the rest of the solution in the vial, and the vials were counted in a scintillation counter to determine the amount of radioactivity in each vial. The DNA synthesis rate was then calculated as cpm ^3 H thymidine incorporated into total cellular DNA/microgram of cell protein for each individual well. Mean and standard deviation for each group was also calculated.
(§3) The aged epidermis may be choline deficient due to the decreased capillary circulation to the skin. To simulate the choline-deficient in vitro system, keratinocytes were plated in complete medium and 48 hours later switched to choline-free medium. The cells were then grown for five days in the choline-free medium with or without addition of different amounts of choline or TCC. To determine whether TCC can provide choline for keratinocyte proliferation under these conditions, on day 5, the amount of ^3 H thymidine incorporation into DNA was determined as in the previous experiment. The protein content of the wells were also quantitated. Both these parameters were expressed as % of control ±SD.

The test system of series [2] is human keratinocytes. As to the kind of experiment: 3H choline incorporation into phospholipids of keratinocytes. As to conditions: Homo sapiens, Keratinocyte, 48 hours, * statistically significant effects, read-out: 3H choline incorporated into cellular phospholipids. The method, then:
as §1
Choline acts as an essential nutrient for the cellular phospholipid biosynthesis of keratinocytes. Choline present in the medium is used up by the cells for phospholipid biosynthesis. If TCC provides choline for the cells it will complete with the choline in the medium for incorporation into cellular phospholipids. When cells are incubated with ^3 H-labelled choline, its incorporation into phospholipids will be decreased by the presence of unlabelled choline or TCC in the medium.
[…] The wells were washed, total lipids were extracted using Bleigh Dyer method as described above and the total counts in the chloroform phase was determined. To ascertain that the counts are present only in the phospholipid fraction, the amount of ^3 H choline incorporated into the different lipid fractions were quantitated by running TLC of the fractions in the above solvent system, and the amount of radioactivity in the phospholipid fraction (origin) was quantitated using BioScan plate reader. The cpm of ^3 H choline was plotted against the amount of cold choline or TCC added in the medium to assess the competition between choline supplied from TCC with ^3 H choline.
The amount of ^3 H choline incorporated into cellular phospholipids was determined and expressed as % of controls.

Series [3] has as its system human keratinocytes. As to the kind of experiment: DNA synthesis (3H thymidine incorporation) in keratinocytes in choline-free medium. To be noted: Keratinocyte. The method, then: as §1
The incorporation of ^3 H-thymidine by cultured keratinocytes was used as an assay of keratinocyte proliferation. Thymidine is one of four deoxynucleosides which are the monomeric units of DNA, the universal library of genetic information in the animal kingdom. Prior to cell division of a somatic cell such as a keratinocyte, the complete genome of the cell undergoing cell division is replicated. This involves large scale DNA synthesis by the cell and enables both daughter cells to receive identical copies of the genetic material. When ^3 H-thymidine is included in the culture media of keratinocytes which are synthesizing DNA in preparation for cell division then the labelled nucleoside is incorporated into the newly synthesized DNA. The extent of incorporation of ^3 H-thymidine into a population of cells is proportional to the rate of DNA synthesis by this population of cells and therefore an indication of their cellular proliferation.
as §2, §3
(Uptake of a labelled nucleoside into DNA is a usual measure of proliferation.)

Series [4] in a line: Signs of cytotoxicity in / tolerance by keratinocytes. As to conditions: human, 24 hours exposure, read-out: concentration at which cells showed signs of cytotoxicity. The method, then:
Effects of 24 hours exposure to 0.1 μM to 10 mM of citric acid, choline or the different citrate esters on keratinocyte DNA synthesis are shown in table 1. Rate of DNA synthesis calculated as cpm ^3 H thymidine incorporated into cellular DNA/μg of cell protein is expressed as % of control (no addition controls) ±SD. The actual amount of cpm/μg protein of the control is 1103 ±88.

The structures appear in SMILES notation. A value given as a limit tells only on which side of the number the result lay.

For three compounds, activity, minimal effective concentration and MCC results are on record in US5571518A, “Cosmetic compositions containing tricholine citrate” (priority 1995, dated 1996).

`C[N+](C)(C)CCO` [Choline, choline]: the activity at 1 µM is 197 ± 21.8% in series [1] (120 h, 1 μM) and 261 ± 5.6% in series [3] (120 h, 1 μM, five days, choline-free medium, ±SD, * statistically significant). Moreover, the activity at 10 µM in series [1] (120 h, 10 μM) came out at 264 ± 50%; in series [2], 61.6 ± 7.8%; in series [3] (120 h, 10 μM, five days, choline-free medium, ±SD, * statistically significant), 313 ± 11.4%. In addition, the activity at 100 µM in series [1] (120 h, 100 μM) worked out at 276 ± 52%; in series [2], 36.9 ± 1.6%; in series [3] (120 h, 100 μM, five days, choline-free medium, ±SD, * statistically significant), 315 ± 29.3%. The activity at 1000 µM in series [1] (120 h, 1000 μM) is 229 ± 29%; in series [2], 10.8 ± 5.5%; in series [3] (120 h, 1000 μM, five days, choline-free medium, ±SD, * statistically significant), 297 ± 11.3%. The activity at 10000 µM came to 209 ± 13.7% in series [1] (120 h, 10,000 μM) and 270 ± 11.2% in series [3] (120 h, 10,000 μM, five days, choline-free medium, ±SD, * statistically significant). The minimal effective concentration in series [3] (read-out: lowest concentration that increased proliferation (both DNA synthesis and protein content)) is 1 µM.
`CCOC(=O)CC(O)(CC(=O)OCC)C(=O)OCC` [TEC, triethylcitrate]: the MCC at 24 h in series [4] is no less than 1 mM. Further, in series [2], the activity at 10 µM is 114 ± 9.9%, the activity at 100 µM worked out at 89.2 ± 1.9% and the activity at 1000 µM was 82.8 ± 22%.
Regarding `CCCCOC(=O)CC(O)(CC(=O)OCCCC)C(=O)OCCCC` [TBC, tributylcitrate], the MCC at 24 h in series [4] is no less than 1 mM. In series [2], the activity at 10 µM came to 81.1 ± 7%, the activity at 100 µM came out at 121 ± 6.7% and the activity at 1000 µM is 81.1 ± 12%.
